Earlier results in patent US20050222163A1, “Combinations of signal transduction inhibitors” (PFIZER INC, priority 2004, published 2005).

Columns and labels:
[1] = tested on: phosphorylated ERK1 and ERK2; details: background statement, result in words
[2] = comparison with predecessor CI-1040, result in words

SMILES	levels of phosphorylated ERK1 and ERK2 [1]	metabolic stability relative to CI-1040 [2]
O=C(NOCC1CC1)c1ccc(F)c(F)c1Nc1ccc(I)cc1Cl [CI-1040, 2-(2-Chloro-4-iodo-phenylamino)-N-cyclopropylmethoxy-3,4-difluoro-benzamide, reference compound]	significant decrease	
O=C(NOC[C@H](O)CO)c1ccc(F)c(F)c1Nc1ccc(I)cc1F [N-[(R)-2,3-Dihydroxy-propoxy]-3,4-difluoro-2-(2-fluoro-4-iodo-phenylamino)-benzamide]	significantly inhibits the phosphorylation of ERK1 and ERK2	metabolically more stable
